# Experimental data reported in publication PMC10375191, “Transformable Neuropeptide Prodrug with Tumor Microenvironment Responsiveness for Tumor Growth and Metastasis Inhibition of Triple‐Negative Breast Cancer” (Advanced Science, 2023).
# Starred links: 1 amine or outer side, 2 acyl side, 3 side chain; linkers in the order of their positions; H or OH if unused. Residues, ends and D or L forms follow the SMILES beside them. *: point of attachment. Doxorubicin(3'-N) = COc1cccc2c1C(=O)c1c(O)c3c(c(O)c1C2=O)C[C@@](O)(C(=O)CO)C[C@@H]3O[C@H]1C[C@H](N*)[C@H](O)[C@H](C)O1; Suc = O=C(CCC(=O)[*:2])[*:1]
# Tests used:
# [1] = target: T1, matrix metalloproteinase‐2 (MMP‐2) (Homo sapiens, UniProt P08253); experiment: MMPs-responsive cleavage of DOX-P18 by MMP-2 (HPLC, MS, fluorescence); assay type: in vitro ADME; conditions: 1 mg mL^−1 DOX-P18 with 1 µg mL^−1 MMP-2, 37 °C; HPLC at 6, 12, 24, 72 h, monitored at 500 nm; product DOX-P3 identified by MS
# T1 construct: purchased Novoprotein Scientific Inc. (Shanghai, China)
# T1 sequence (P08253 110-660): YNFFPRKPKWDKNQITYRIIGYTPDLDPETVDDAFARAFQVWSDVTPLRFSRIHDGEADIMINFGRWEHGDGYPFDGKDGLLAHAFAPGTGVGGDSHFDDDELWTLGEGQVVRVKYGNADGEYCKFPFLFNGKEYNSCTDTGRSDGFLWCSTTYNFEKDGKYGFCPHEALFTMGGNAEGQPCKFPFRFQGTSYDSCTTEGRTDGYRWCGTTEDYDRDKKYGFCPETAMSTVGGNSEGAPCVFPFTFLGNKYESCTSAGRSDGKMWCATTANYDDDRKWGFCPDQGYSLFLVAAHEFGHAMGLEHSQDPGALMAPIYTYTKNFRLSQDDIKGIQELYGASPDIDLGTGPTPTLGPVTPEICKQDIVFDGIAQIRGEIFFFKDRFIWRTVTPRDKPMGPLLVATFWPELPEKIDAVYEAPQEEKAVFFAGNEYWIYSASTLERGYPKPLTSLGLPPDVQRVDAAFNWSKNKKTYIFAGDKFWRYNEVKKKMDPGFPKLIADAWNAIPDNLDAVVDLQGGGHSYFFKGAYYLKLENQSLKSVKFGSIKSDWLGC
# Experimental: The enzymatic reaction process was monitored by HPLC at 6, 12, 24, and 72 h.
# Doxorubicin hydrochloride (DOX·HCl), trifluoroacetic acid (TFA), and anhydrous N,N-Dimethylformamide (DMF) were purchased from Aladdin (Shanghai, China).
# Thioanisole (TA), 1,2-ethanedithiol (EDT), and phenol were obtained from Macklin (Shanghai, China). 4-methylmorpholine (NMM), N,N’-diisopropylcarbodiimide (DIC), and 1-hydroxybenzotriazole (HOBt) were purchased from OKA (Beijing, China). Rink amide methylbenzhydrylamine (MBHA) resin, Wang resin and all Fmoc-protected amino acids were obtained from NJPeptide (Nanjing, China). Ethanol, diethyl ether, acetonitrile (ACN), and methanol were purchased from Sinopharm Chemical Reagent Co., Ltd (Shanghai, China). Piperidine, p-nitrophenol, and succinic anhydride (Succ) were obtained from Sigma-Aldrich (Shanghai, China). Recombinant human matrix metalloproteinase-2 (MMP-2) and matrix metalloproteinase-9 (MMP-9) produced by Novoprotein Scientific Inc. (Shanghai, China) are supplied as a 0.2 μm filtered buffer mixture of 20 mM Tris-HCl, 2 mM CaCl2, 150 mM NaCl, 0.05 % Brij 35 (w/v), pH 7.5, and their specific activity is >1300 pmol/min/µg as measured under the described conditions. All commercial reagents and HPLC solvents were used with […]
# MDA‐MB‐231 cells = experiment: Flow cytometry: cellular uptake and cellular MMPs-responsive drug release; assay type: cell-based, human
# Experimental: MDA‐MB‐231 cells were plated in 6‐well plates (2 × 10^5 cells per well) for 24 h. […] The mean fluorescence intensity (MFI) of 1 × 10^4 cells was detected by flow cytometry (FACSCalibur, BD, USA). Besides, 5 mM ethylenediaminetetraacetic acid (EDTA) purchased from Sigma was used as a model inhibitor to inhibit MMPs activity.
# [2] = system: MDA‐MB‐231 tumor‐bearing BALB/c nude mice; experiment: Biodistribution by ex vivo fluorescence imaging; assay type: in vivo, mouse; conditions: single i.v. injection, ex vivo fluorescence 2-12 h
# Experimental: At 2, 4, 6, 8, 10, and 12 h post‐injection, the major organs and tumor were taken out and fluorescence signals were captured by IVIS.
# [3] = system: MDA‐MB‐231 xenograft model; experiment: In vivo antitumor evaluation, MDA-MB-231 xenograft; set-up: species or system mouse
# Description: All the animal experimental procedures were recognized and approved by the Regional Ethics Committee for Animal Experiments at Ningbo University, China (Permit NO. SYXK (Zhe) 2019‐0005). The triple‐negative breast cancer (TNBC) xenograft tumors were established on female BALB/c nude mice (≈15 g) by subcutaneous injection of MDA‐MB‐231 cells (5 × 10^6 cells in each mouse). TNBC metastasis models were constructed by injecting MDA‐MB‐231‐luc cells (1 × 10^5 cells in each mouse) through the tail vein to female BALB/c nude mice. The day that MDA‐MB‐231‐luc was injected was set as D0. In vivo imaging system (IVIS) (Lumina XRMS Ш, PerkinElmer, USA) was utilized to identify the tumor metastasis at D12.
# When the tumor volume of BALB/c mice reached ≈70 mm^3 (V = L × W × W/2), the tumor‐bearing mice were randomly divided into seven groups (n = 5 for each group). […] 100 µL drug was injected intravenously through the tail vein every other day for a total of five times. The day that the first injection was given was set as D0. Tumor size and mouse weight were measured every 2 days from the day that treatment started until D26.
# [4] = MDA-MB-231, 40 µg mL^−1, 1 h 37 °C, endocytosis inhibitors, flow cytometry MFI
smiles,measurement,setting,value
CC[C@H](C)[C@H](NC(=O)[C@@H]1CCCN1C(=O)[C@H](CC(N)=O)NC(=O)[C@H](CC(N)=O)NC(=O)[C@H](Cc1ccc(O)cc1)NC(=O)[C@H](Cc1c[nH]cn1)NC(=O)[C@H](CCCNC(=N)N)NC(=O)CNC(=O)[C@H](CCCNC(=N)N)NC(=O)[C@@H](NC(=O)CNC(=O)[C@H](CC(C)C)NC(=O)[C@@H]1CCCN1C(=O)CCC(=O)N[C@H]1C[C@H](O[C@H]2C[C@](O)(C(=O)CO)Cc3c(O)c4c(c(O)c32)C(=O)c2c(OC)cccc2C4=O)O[C@@H](C)[C@H]1O)C(C)C)C(=O)N[C@@H](Cc1c[nH]c2ccccc12)C(=O)N[C@@H](CCCNC(=N)N)C(=O)N[C@@H](CCC(N)=O)C(=O)N[C@@H](CCCNC(=N)N)C(=O)N[C@@H](Cc1ccc(O)cc1)C(N)=O [DOX‐P18] ({Doxorubicin(3'-N)-Suc}-PLGVRGRHYNNPIWRQRY-NH2),Enzymatic cleavage by MMP-2,[1],efficiently cleaved
same,Cellular uptake at 4 °C (MFI),"MDA‐MB‐231 cells; MDA-MB-231, 40 µg mL^−1 (by DOX content), DMEM 10% FBS, 1 h, 4 °C, flow cytometry, n = 3",strongly suppressed
same,Share of uptake by Y1R-mediated endocytosis,"MDA‐MB‐231 cells; MDA-MB-231, 40 µg mL^−1, 1 h 37 °C, Y1R antagonist BIBP3304 20 µM, flow cytometry MFI",20%
same,Share of uptake by caveolin-mediated endocytosis,MDA‐MB‐231 cells; [4],14%
same,Share of uptake by micropinocytosis,MDA‐MB‐231 cells; [4],27%
same,Cell fluorescence intensity relative to EDTA-treated group (cellular drug release),"MDA‐MB‐231 cells; MDA-MB-231, 48 h, without vs with 5 mM EDTA (MMPs inhibited), flow cytometry, n = 3",almost three times higher
same,Time of highest content in tissues,[2],6 h
same,Death / body weight in tumor-bearing mice,"[3]; MDA-MB-231 tumor-bearing nude mice, DOX-P18 up to 100 mg kg^−1 (20 mg kg^−1 DOX), DOX at 10 and 20 mg kg^−1",no death or obvious weight losses
same,Tumor growth inhibition,"[3]; MDA-MB-231 xenograft, 100 mg kg^−1 (equivalent to 20 mg kg^−1 DOX) i.v. every other day, five times, n = 5",significant inhibitory efficacy
same,Histological analysis of major organs after treatment,"[3]; MDA-MB-231 xenograft, 24 days, five administrations, 5 mg kg^−1 DOX or DOX equivalent",without obvious lesions in other organs
